Measurements as given in patent publication US20230384330A1, “COMPOSITIONS AND METHODS RELATING TO THE IDENTIFICATION AND TREATMENT OF IMMUNOTHROMBOTIC CONDITIONS” (THE REGENTS OF THE UNIVERSITY OF MICHIGAN, priority 2020, published 2023).
“Also recorded” adds a separate entry of the source.

Columns and labels:
[1] = system: CD142/TF; assay: CD142/TF expression in PBMC stimulated with TLR ligands, mass cytometry; assay type: cell-based, human; conditions: PBMC from HC stimulated 4 h, vs no treated (NT) controls
Method: FIGS. 12A-12C: Inflammatory mediators increase CD142/TF expression and activity in monocytes. A) PBMC were isolated from HC and stimulated with Pam2CSK4(TLR2), Poly(I:C) (TLR3), and LPS (TLR4) for 4 h. […] Circles represent CD14+ monocytes. B) PBMC were isolated and stimulated with LPS and Ang II (vascular activator) and TF activity was quantified based on the ability of TF/FVIIa to activate FX to factor Xa. The amidolytic activity of the TF/FVIIa complex is quantitated by the amount of FXa produced using a FXa substrate which releases a chromophore upon cleavage. *p<0.05. C) To probe for the mechanisms that regulate TF expression in circulating monocytes, PBMC were isolated and stimulated with LPS with or without Annexin V (AnnV) to block apoptotic sensing (through masking of PS on target cells/particles) in monocytes. […] Results representative of 3 independent experiments.
To determine if inflammatory mediators can drive monocyte TF expression, CD14+ monocytes were isolated from PBMCs and stimulated with TLR ligands (Pam2Csk4; Poly(I:C); LPS) for 4 hours.
Measurement of inflammatory mediated TF expression. To determine if inflammatory mediators can drive monocyte TF expression, CD14+ monocytes were isolated from peripheral blood mononuclear cells (PBMC) and were stimulated with TLR ligands (Pam2Csk4; Poly(I:C); LPS) for 4 hours. To assess if monocyte-bound TF is active, a FXa activity assay was used. CD14+ monocytes were stimulated with LPS and FXa activity was assessed as a marker of TF activity.

[2] = system: p-p65 and p-PKC; assay: Signal pathway activation in CD14+ monocytes treated with LPS and heparin, microfluidic proteomics (p-p65, p-PKC); assay type: cell-based, human; conditions: LPS 1 ug/ml 4 h and heparin 10 u/ml, between groups
Method: (§1) FIGS. 3A-3B: Heparin augments type I IFN/STAT1 signaling and tends to blunt CD142/TF transcriptional induction in response to LPS. A) CD14+ monocytes were stimulated with LPS (1 ug/ml; 4 h) and heparin (Hep) (10 u/ml) and signal pathway activation was probed using microfluidic proteomics. […] However, phospo-STAT1 activation was augmented in monocytes cotreated with LPS and Hep. Normalized activation determined by normalizing phospho proteins to total protein. B) qRT-PCR of CD14+ monocytes treated with LPS with and without Hep. […] Fold-change determined normalizing to GAPDH and to NT groups. *p<0.05; #p=0.07
PBMC treatment and stimulation. Approximately 10 million cells were equally divided into 4 fractions and treated with the following (for Hep experiments): 1) Hep (1.5 U/mL), 2) LPS (1 μg/mL), 3) LPS+Hep (1 μg/mL LPS with 1.5 U/mL Hep), and 4) RPMI medium alone. All treatments were performed for 2 hours in suspension at 37° C. and 5% CO2 with gentle vortexing every 30 minutes to prevent cell sedimentation. After 2-hour incubation, cells were centrifuged, and supernatants were collected. Cells were then resuspended in 1 mL PBS (without Ca^2+ and Mg ^2+) for downstream analysis

[3] = system: PBMC; assay: Signaling pathway activation and inflammatory transcriptional programs in PBMC, heparin alone; assay type: cell-based, human
[4] = system: CD142/TF; assay: qRT-PCR of CD142/TF in CD14+ monocytes treated with LPS with and without heparin; assay type: cell-based, human
Method: as §1
PCR gene expression assay. RNA was then eluted in 32 uL RNase free water and concentration and purity were measured using Nanodrop. Applied Biosystems High-Capacity cDNA Reverse Transcription kit was used to convert RNA into cDNA for qPCR per the manufacturer's instructions. PCR was performed in 96 well plate using Taqman master mix and Taqman primers. 1× GAPDH-VIC and 1× target gene-FAM was used for each PCR reaction as housekeeping control gene and target gene respectively (total of 20 μL reaction volume). “No treatment control” is used to normalize each target gene expression for analysis of experimental groups.

[5] = system: PBMCs
[6] = system: STAT1; assay: Signal pathway activation in monocytes/PBMC treated with LPS and heparin, microfluidic proteomics (phospho-STAT1); assay type: cell-based, human; conditions: LPS 1 ug/ml 4 h cotreated with heparin 10 u/ml, vs LPS alone
[7] = system: TF/FVIIa complex; assay: Tissue factor activity assay (TF/FVIIa activation of FX to FXa, chromogenic substrate) in PBMC; assay type: cell-based, human
Method: (§2) FIGS. 2A-2B: Monocytes activated by inflammatory stimuli increase TF/CD142 expression and activity. PBMC were isolated from healthy controls and stimulated with LPS (1 ug/ml for 4 h) and compared with no treatment (NT) controls. […] B) Tissue factor activity was assessed in both cells and supernatants in PBMC treated with LPS (1 ug/ml for 4 h). The tissue factor activity was quantified based on the ability of TF/FVIIa to activate FX to factor Xa. The amidolytic activity of the TF/FVIIa complex is quantitated by the amount of FXa produced using a highly specific FXa substrate which releases a chromophore upon cleavage. *p<0.05.
FIGS. 5A-5C: Annexin V peptide pretreatment blocks LPS induction of CD142/Tissue factor and CD142/Tissue factor activity. PBMC were pre-treated for 1 hr with Annexin V (10 ug/ml) or PBS and then stimulated with LPS (1 ug/ml) for 4 hours. PBMC were analyzed with either flow cytometry or tissue factor activity assay. A) Representative SSC vs. FSC gating strategy for Monocytes and Lymphocytes; B) CD142/Tissue factor was assessed by flow cytometry. […]
Active TF catalyzes the conversion of factor X to Xa; TF activity in plasma, microvesicles, and monocytes were measured by quantifying factor Xa activity using the fluorogenic factor Xa substrate (Abcam). TF activity was quantified based on the ability of TF/FVIIa to activate FX to FXa. […]

[8] = system: CD142/Tissue factor; assay: CD142/Tissue factor expression on PBMC populations by flow cytometry; assay type: cell-based, human; conditions: for CD142 expression (percent positive CD142+) in monocytes and granulocytes: PBMCs, 1 ug/mL LPS or 155 ug/mL LpA, 4 hours; for CD142/Tissue factor induction by LPS: PBMC pre-treated 1 hr with Annexin V 10 ug/ml, then LPS 1 ug/ml 4 hours
Method: as §2
FIGS. 5A-5C: Annexin V peptide pretreatment blocks LPS induction of CD142/Tissue factor and CD142/Tissue factor activity. PBMC were pre-treated for 1 hr with Annexin V (10 ug/ml) or PBS and then stimulated with LPS (1 ug/ml) for 4 hours. PBMC were analyzed with either flow cytometry or tissue factor activity assay. A) Representative SSC vs. FSC gating strategy for Monocytes and Lymphocytes; B) CD142/Tissue factor was assessed by flow cytometry. Annexin V pre-treatment blocks CD142/Tissue factor induction by LPS. C). CD142/Tissue factor activity using substrate cleavage and FXa generation. Results are representative of three independent experiments. *p<0.05
PBMCs were isolated and treated with 1 ug/mL LPS, 155 ug/mL LpA, or a combination of the above for 4 hours with gentle vortexing every 30 minutes. Cells were blocked with Tru-Stain FcX for 10 minutes and then treated with human anti CD142-PE for 30 minutes on ice. Cells were then analyzed via flow cytometry. (A) Representative FSC vs. SSC gating strategy. (B) Percent positive CD142+ for lymphocytes. (C) Percent positive CD142+ for monocytes. (D) Percent positive CD142+ for granulocytes. N=3. *p-value<0.0001 (ANOVA).

[9] = system: NFκB; assay: NFκB activation in THP1-Dual monocytes (SEAP, QUANTI-Blue assay); assay type: cell-based, human; conditions: 24 h, 77.5 ug/mL Lp(a)
Method: FIG. 10: Lp(a) increases NFκB induction on THP1-Dual monocytes; addition of TLR2 decreases activation effect of Lp(a). THP1-Dual monocytes stimulated for 24 h with 77.5 ug/mL Lp(a), 77.5 μg/mL Lp(a)+10 μg/mL TR2, 77.5 μg/mL Lp(a)+10 μg/mL TR4, and 100 ng/mL Pam2CSK4. After 24 h stimulation, supernatant was collected and NFκB activation was assessed by measuring the levels of SEAP using QUANTI-Blue assay. Levels of SEAP were determined by reading the optical density at 640 nm. *p-value<0.0001 (ANOVA).
THP1-Dual monocytes stimulated for 24 h with 77.5 ug/mL Lp(a), 77.5 ug/mL Lp(a)+10 ug/ml TLR2, 77.5 ug/ml Lp(a)+10 ug/ml TLR4, and 100 ng/mL Pam2CSK4. After 24 h stimulation, supernatant was collected and NFkB activation was assessed by measuring the levels of SEAP using QUANTI-Blue assay. Levels of SEAP were determined by reading the optical density at 640 nm. *p-value<0.0001 (ANOVA). […] THP1-Dual monocytes stimulated for 24 h with 77.5 ug/mL Lp(a), 77.5 ug/mL Lp(a)+10 ug/ml TLR2, 77.5 ug/ml LpA+10 ug/ml TLR4, and 100 ng/mL Pam2CSK4. After 24 h stimulation, supernatant was collected and IRF activation was assessed by measuring the levels of Lucia luciferase using QUANTI-Luc assay. Levels of Lucia luciferase were determined by measuring the relative light units (RLUs) in a luminometer at a 100 ms reading time.

Molecule: Pam2CSK4
- CD142/TF expression (viSNE plots, CD14+ monocytes) [1]: increased CD142/TF expression

Molecule: Poly(I:C)
- CD142/TF expression (viSNE plots, CD14+ monocytes) [1]: increased CD142/TF expression

Molecule: heparin
- p-p65 and p-PKC activation [2]: no differences
- signaling pathway activation or inflammatory transcriptional programs [3]: no effects
- transcriptional induction of CD142/TF by LPS ([4]; cotreatment with LPS and heparin, fold-change normalized to GAPDH and NT, #p=0.07): trend to blunted transcriptional expression; also recorded: seemed to blunt
- cytotoxicity [5]: not cytotoxic
- phospho-STAT1 activation (phospho protein normalized to total protein) [6]: augmented; also recorded: increases in STAT1 activation

Molecule: lipopolysaccharide [LPS]
- CD142/TF expression (viSNE plots, CD14+ monocytes) [1]: increased CD142/TF expression
- TF activity (FXa production) ([7]; PBMC/monocytes stimulated with inflammatory stimulus, vs untreated): increases TF activity
- CD142/TF expression in monocytes ([8]; LPS 1 ug/ml, 2-4 h, vs no treatment (NT)): induce TF expression; also recorded: rapid and robust induction; also recorded: rapidly drives TF expression
- CD142 expression (percent positive CD142+) in monocytes and granulocytes [8]: upregulated
- TF induction in purified CD14+ Mϕ compared with bulk PBMC stimulation ([8]; response to LPS): much less TF induction
- CD142/TF transcriptional expression ([4]; LPS alone, CD14+ monocytes, vs NT): induced

Molecule: lipoprotein (a) [Lp(a)]
- CD142 expression (percent positive CD142+) in monocytes and granulocytes [8]: upregulated
- NFκB induction (SEAP, optical density at 640 nm) [9]: increases

B1: Annexin V (protein, UniProt P08758 2-320, looked up)
Annexin A5: AQVLRGTVTDFPGFDERADAETLRKAMKGLGTDEESILTLLTSRSNAQRQEISAAFKTLFGRDLLDDLKSELTGKFEKLIVALMKPSRLYDAYELKHALKGAGTNEKVLTEIIASRTPEELRAIKQVYEEEYGSSLEDDVVGDTSGYYQRMLVVLLQANRDPDAGIDEAQVEQDAQALFQAGELKWGTDEEKFITIFGTRSVSHLRKVFDKYMTISGFQIEETIDRETSGNLEQLLLAVVKSIRSIPAYLAETLYYAMKGAGTDDHTLIRVMVSRSEIDLFNIRKEFRKNFATSLYSMIKGDTSGDYKKALLLLCGEDD
- CD142/Tissue factor activity (FXa generation) induced by LPS ([7]; PBMC pre-treated 1 hr with Annexin V 10 ug/ml, then LPS 1 ug/ml 4 hours): blocks
- CD142/Tissue factor induction by LPS [8]: blocks
- CD142/Tissue factor induction by LPS ([8]; listed as AnnV): greatly reduced
- CD142/Tissue factor induction by LPS ([8]; listed as annexin V): dramatic blunting
